# pIC50: −log10 of the molar value. Starred links: 1 amine or outer side, 2 acyl side, 3 side chain; linkers in the order of their positions; H or OH if unused. Positions of bridges follow the written chain, without caps; N, C: chain ends. Non-standard residues stand in square brackets, D forms with d. Residues, ends and D or L forms follow the SMILES beside them. *: point of attachment. hPhe(3,5-F2-4-CF3) = N[C@@H](CCc1cc(F)c(C(F)(F)F)c(F)c1)C(=O)O; hPhe(3-Cl-4-CF3) = N[C@@H](CCc1ccc(C(F)(F)F)c(Cl)c1)C(=O)O; NMeDab(N,N-(CH2CF2CH2)) = CN[C@@H](CCN1CC(F)(F)C1)C(=O)O; NMePhe(4-CF3) = CN[C@@H](Cc1ccc(C(F)(F)F)cc1)C(=O)O; Thiomorpholino(1,1-dioxo) = O=S1(=O)CCN(*)CC1; NMeAbu(4,4,4-F3) = CN[C@@H](CC(F)(F)F)C(=O)O; NMedβ3hAla = C[C@H](CC(=O)[*:2])N(C)[*:1]; NMeGly(cPent) = CN[C@H](C(=O)O)C1CCCC1; Phe(3-I) = N[C@@H](Cc1cccc(I)c1)C(=O)O; Pro(4,4-F2) = O=C(O)[C@@H]1CC(F)(F)CN1; NMeCha = CN[C@@H](CC1CCCCC1)C(=O)O; NMeChg = CN[C@H](C(=O)O)C1CCCCC1; NMeF = CN[C@@H](Cc1ccccc1)C(=O)O; NMeD = CN[C@@H](CC(=O)O)C(=O)O; NMeL = CN[C@@H](CC(C)C)C(=O)O; NPrAla = CCCN[C@@H](C)C(=O)O; NMeV = CN[C@H](C(=O)O)C(C)C; d(β3hA) = C[C@@H](N)CC(=O)O; NMeAbu = CC[C@H](NC)C(=O)O; NMeS = CN[C@@H](CO)C(=O)O; dNMeS = CN[C@H](CO)C(=O)O; Morpholide = C1CN(*)CCO1; NMeA = CN[C@@H](C)C(=O)O; NMeAib = CNC(C)(C)C(=O)O; Nle = CCCC[C@H](N)C(=O)O; Piperidide = C1CCN(*)CC1; Pra = C#CC[C@H](N)C(=O)O; dNMeA = CN[C@H](C)C(=O)O; Ac5c = NC1(C(=O)O)CCCC1; Aze = O=C(O)[C@@H]1CCN1; Ac4c = NC1(C(=O)O)CCC1; CH2CMe2OH = CC(C)(O)C*; Cyclobutyl = C1CC(*)C1; Aib = CC(C)(N)C(=O)O; Isopentyl = CC(C)CC*; NEtG = CCNCC(=O)O; Sar = CNCC(=O)O; Propyl = CCC*
# Target: T1, Kras and SOS1 (biotin-tagged human Kras loaded with GDP, His-tagged human SOS1) (Homo sapiens, UniProt P01116, G12D)
# T1 construct: made in house; host or cells: E. coli (stated for Kras only)
# T1 sequence (P01116 1-188 isoform P01116-2 G12D): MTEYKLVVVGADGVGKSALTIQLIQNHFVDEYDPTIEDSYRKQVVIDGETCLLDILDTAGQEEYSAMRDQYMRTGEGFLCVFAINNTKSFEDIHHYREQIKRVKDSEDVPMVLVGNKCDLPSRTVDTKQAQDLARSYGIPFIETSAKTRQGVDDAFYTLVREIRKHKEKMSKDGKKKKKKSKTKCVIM
# Assay: Protein-protein interaction inhibition between Kras and SOS1 (KrasGl2D-SOS PPI) using AlphaScreen
# Assay type: binding
# Settings: AlphaScreen; biotin-tagged human Kras loaded with GDP, His-tagged human SOS1; read-out: KRAS G12D-SOS PPI IC50
# Procedure, shortened: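 Kras was produced in E. coli, purified, then loaded with GDP. It was paired via streptavidin acceptor beads with His-SOS1 held on nickel donor beads, and proximity signal at 520-620 nm was read after 680 nm illumination.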
row,SMILES,pIC50
1,"CCCOC[C@@H]1NC(=O)[C@H](CCN2CC(F)(F)C2)N(C)C(=O)[C@H](CCc2ccc(C(F)(F)F)c(Cl)c2)NC(=O)CN(C)C(=O)[C@H](CC2CCCCC2)N(C)C(=O)CN(C)C(=O)CN(C)C(=O)[C@H]([C@@H](C)CC)NC(=O)[C@H](C)N(C)C(=O)C[C@@H](C(=O)N2CCCCC2)N(C)C(=O)[C@H](C(C)C)N(C)C1=O [Compound 154] ([NMeA]I[Sar][Sar][NMeCha][Sar][hPhe(3-Cl-4-CF3)][NMeDab(N,N-(CH2CF2CH2))]S(Propyl)[NMeV][NMeD]-Piperidide; lactam N-11)",8.32
2,C#CC[C@@H]1NC(=O)[C@H](Cc2cccc(I)c2)NC(=O)CN(C)C(=O)[C@H](Cc2ccccc2)N(C)C(=O)[C@@H]2CCN2C(=O)[C@H](C)N(C)C(=O)[C@H]([C@@H](C)CC)NC(=O)[C@H](CC(C)C)N(C)C(=O)C[C@@H](C(=O)N2CCCCC2)N(C)C(=O)[C@H](CC(C)C)NC(=O)C(C)(C)N(C)C1=O [Compound 1313] ([NMeL]I[NMeA][Aze][NMeF][Sar][Phe(3-I)][Pra][NMeAib]L[NMeD]-Piperidide; lactam N-11),7.19
3,"CC[C@H](C)[C@@H]1NC(=O)[C@H](CC(C)C)N(C)C(=O)C[C@@H](C(=O)N2CCS(=O)(=O)CC2)N(C)C(=O)[C@H](C(C)C)N(C)C(=O)C2(CCCC2)NC(=O)[C@@H]2CCCN2C(=O)[C@H](CCc2ccc(C(F)(F)F)c(Cl)c2)NC(=O)CN(C)C(=O)[C@H](CC2CCCCC2)N(C)C(=O)[C@@H]2CCN2C(=O)[C@H](C)N(C)C1=O [Compound 1238] ([NMeL]I[NMeA][Aze][NMeCha][Sar][hPhe(3-Cl-4-CF3)]P[Ac5c][NMeV][NMeD]-{Thiomorpholino(1,1-dioxo)}; lactam N-11)",8.00
4,CC[C@H](C)[C@@H]1NC(=O)[C@H](CC(C)C)N(C)C(=O)C[C@@H](C(=O)N2CCOCC2)N(C)C(=O)[C@H](C2CCCCC2)N(C)C(=O)C2(CCC2)NC(=O)[C@@H]2CCCN2C(=O)[C@H](CCc2ccc(C(F)(F)F)c(Cl)c2)NC(=O)CN(C)C(=O)[C@H](CC2CCCCC2)N(C)C(=O)CN(C)C(=O)CN(C)C1=O [Compound 1875] ([NMeL]I[Sar][Sar][NMeCha][Sar][hPhe(3-Cl-4-CF3)]P[Ac4c][NMeChg][NMeD]-Morpholide; lactam N-11),9.38
5,CC[C@H](C)[C@@H]1NC(=O)[C@H](CC(C)C)N(C)C(=O)C[C@@H](C)NC(=O)[C@H](C(C)C)N(C)C(=O)C2(CCCC2)NC(=O)[C@@H]2CCCN2C(=O)[C@H](CCc2ccc(C(F)(F)F)c(Cl)c2)NC(=O)CN(C)C(=O)[C@H](COc2ccccc2Cl)N(C)C(=O)CN(C)C(=O)CN(C)C1=O [Compound 1582],7.46
6,CC[C@H](C)[C@@H]1NC(=O)[C@H](C)N(C)C(=O)C[C@@H](C(=O)N2CCCCC2)N(C)C(=O)[C@H](C(C)C)N(C)C(=O)C2(CCCC2)NC(=O)[C@@H]2CCCN2C(=O)[C@H](CCc2ccc(C(F)(F)F)c(Cl)c2)NC(=O)[C@@H](C)N(C)C(=O)[C@H](CC2CCCCC2)N(C)C(=O)[C@@H]2CCN2C(=O)[C@H](C)N(C)C1=O [Compound 1103] ([NMeA]I[NMeA][Aze][NMeCha][dNMeA][hPhe(3-Cl-4-CF3)]P[Ac5c][NMeV][NMeD]-Piperidide; lactam N-11),7.80
7,CCCC[C@@H]1NC(=O)[C@H](Cc2cccc(I)c2)NC(=O)CN(C)C(=O)[C@H](CC2CCCCC2)N(C)C(=O)CN(C)C(=O)CN(C)C(=O)[C@H]([C@@H](C)CC)NC(=O)[C@H](CC(C)C)N(C)C(=O)C[C@@H](C(=O)N2CCCCC2)N(C)C(=O)[C@H](CC(C)C)NC(=O)C(C)(C)N(C)C1=O [Compound 1416] ([NMeL]I[Sar][Sar][NMeCha][Sar][Phe(3-I)][Nle][NMeAib]L[NMeD]-Piperidide; lactam N-11),7.01
8,CC[C@H](C)[C@@H]1NC(=O)[C@H](CC(C)C)N(C)C(=O)C[C@@H](C(=O)N2CCCCC2)N(C)C(=O)[C@H](COC2CCC2)N(C)C(=O)C2(CCCC2)NC(=O)[C@@H]2CCCN2C(=O)[C@H](CCc2ccc(C(F)(F)F)c(Cl)c2)NC(=O)CN(C)C(=O)[C@H](CC2CCCCC2)N(C)C(=O)CN(C)C(=O)CN(C)C1=O [Compound 585] ([NMeL]I[Sar][Sar][NMeCha][Sar][hPhe(3-Cl-4-CF3)]P[Ac5c][NMeS](Cyclobutyl)[NMeD]-Piperidide; lactam N-11),7.03
9,CC[C@H](C)[C@@H]1NC(=O)[C@H](C)N(C)C(=O)C[C@@H](C)NC(=O)[C@H](C2CCCC2)N(C)C(=O)C2(CCCC2)NC(=O)[C@@H]2CCCN2C(=O)[C@H](CCc2ccc(C(F)(F)F)c(Cl)c2)NC(=O)[C@@H](C)N(C)C(=O)[C@H](CC(C)C)N(C)C(=O)CN(C)C(=O)CN(C)C1=O [Compound 621] (cyclo([Ac5c][NMeGly(cPent)][d(β3hA)][NMeA]I[Sar][Sar][NMeL][dNMeA][hPhe(3-Cl-4-CF3)]P)),7.23
10,"CC[C@H](C)[C@@H]1NC(=O)[C@H](CC(F)(F)F)N(C)C(=O)C[C@@H](C(=O)N2CCOCC2)N(C)C(=O)[C@H](C2CCCCC2)N(C)C(=O)C2(CCCC2)NC(=O)[C@@H]2CC(F)(F)CN2C(=O)[C@H](CCc2cc(F)c(C(F)(F)F)c(F)c2)NC(=O)CN(C)C(=O)[C@H](Cc2ccc(C(F)(F)F)cc2)N(C)C(=O)CN(C)C(=O)CN(C)C1=O [Compound 1260] ([NMeAbu(4,4,4-F3)]I[Sar][Sar][NMePhe(4-CF3)][Sar][hPhe(3,5-F2-4-CF3)][Pro(4,4-F2)][Ac5c][NMeChg][NMeD]-Morpholide; lactam N-11)",9.27
11,CC[C@H](C)[C@@H]1NC(=O)[C@H](CC(C)C)N(C)C(=O)C[C@@H](C)NC(=O)[C@H](CC(C)C)N(C)C(=O)C(C)(C)NC(=O)[C@H](COCC(C)(C)O)N(C)C(=O)[C@H](CCc2ccc(C(F)(F)F)c(Cl)c2)NC(=O)CN(C)C(=O)[C@H](COCCC(C)C)N(C)C(=O)[C@@H]2CCN2C(=O)CN(CC)C1=O [Compound 1472] (cyclo([Aib][NMeL][d(β3hA)][NMeL]I[NEtG][Aze][NMeS](Isopentyl)[Sar][hPhe(3-Cl-4-CF3)][NMeS](CH2CMe2OH))),7.17
12,CC[C@H](C)[C@@H]1NC(=O)[C@H](CC(C)C)N(C)C(=O)C[C@@H](C(=O)N(C)C)N(C)C(=O)[C@H](C2CCCC2)N(C)C(=O)[C@H](C)NC(=O)[C@@H](C)NC(=O)[C@H](CCc2ccc(C(F)(F)F)c(Cl)c2)NC(=O)CN(C)C(=O)[C@H](CC2CCCCC2)N(C)C(=O)[C@@H]2CCN2C(=O)[C@H](C)N(C)C1=O [Compound 736] ([NMeL]I[NMeA][Aze][NMeCha][Sar][hPhe(3-Cl-4-CF3)][dA]A[NMeGly(cPent)][NMeD]-NMe2; lactam N-11),7.43
13,"CC[C@H](C)[C@@H]1NC(=O)[C@H](CC(C)C)N(C)C(=O)C[C@@H](C)N(C)C(=O)[C@H](C2CCCCC2)N(C)C(=O)C2(CCC2)NC(=O)[C@@H]2CC(F)(F)CN2C(=O)[C@H](CCc2ccc(C(F)(F)F)c(Cl)c2)NC(=O)CN(C)C(=O)[C@H](CC2CCCCC2)N(C)C(=O)CN(C)C(=O)CN(C)C1=O [Compound 241] (cyclo([Ac4c][NMeChg][NMedβ3hAla][NMeL]I[Sar][Sar][NMeCha][Sar][hPhe(3-Cl-4-CF3)][Pro(4,4-F2)]))",7.74
14,"CC[C@H](C)[C@@H]1NC(=O)[C@H](CC(C)C)N(C)C(=O)C[C@@H](C(=O)N(C)C)N(C)C(=O)[C@H](C2CCCC2)N(C)C(=O)C2(CCCC2)NC(=O)[C@@H]2CC(F)(F)CN2C(=O)[C@H](CCc2cc(F)c(C(F)(F)F)c(F)c2)NC(=O)CN(C)C(=O)[C@H](CC2CCCCC2)N(C)C(=O)[C@@H]2CCN2C(=O)[C@H](C)N(C)C1=O [Compound 1346] ([NMeL]I[NMeA][Aze][NMeCha][Sar][hPhe(3,5-F2-4-CF3)][Pro(4,4-F2)][Ac5c][NMeGly(cPent)][NMeD]-NMe2; lactam N-11)",9.22
15,CC[C@H](C)[C@@H]1NC(=O)[C@H](CC(C)C)N(C)C(=O)C[C@@H](C(=O)N2CCCCC2)N(C)C(=O)[C@H](C(C)C)N(C)C(=O)C2(CCCC2)NC(=O)[C@@H](COCCC(C)C)N(C)C(=O)[C@H](CCc2ccc(C(F)(F)F)c(Cl)c2)NC(=O)CN(C)C(=O)[C@H](CC2CCCCC2)N(C)C(=O)[C@@H]2CCN2C(=O)[C@H](C)N(C)C1=O [Compound 1437] ([NMeL]I[NMeA][Aze][NMeCha][Sar][hPhe(3-Cl-4-CF3)][dNMeS](Isopentyl)[Ac5c][NMeV][NMeD]-Piperidide; lactam N-11),7.09
16,CCCN1C(=O)C[C@@H](C)NC(=O)[C@H](C(C)C)N(C)C(=O)C2(CCCC2)NC(=O)[C@@H]2CCCN2C(=O)[C@H](CCc2ccc(C(F)(F)F)c(Cl)c2)NC(=O)CN(C)C(=O)[C@H](CC2CCCCC2)N(C)C(=O)CN(C)C(=O)CN(C)C(=O)[C@H]([C@@H](C)CC)NC(=O)[C@@H]1C [Compound 114] (cyclo([Ac5c][NMeV][d(β3hA)][NPrAla]I[Sar][Sar][NMeCha][Sar][hPhe(3-Cl-4-CF3)]P)),7.70
17,CC[C@H](C)[C@@H]1NC(=O)[C@H](CC(C)C)N(C)C(=O)C[C@@H](C(=O)N2CCCCC2)N(C)C(=O)[C@H](C2CCCCC2)N(C)C(=O)C2(CCCC2)NC(=O)[C@@H]2CCCN2C(=O)[C@H](CCc2ccc(C(F)(F)F)c(Cl)c2)NC(=O)CN(C)C(=O)[C@H](CC)N(C)C(=O)CN(C)C(=O)CN(C)C1=O [Compound 1743] ([NMeL]I[Sar][Sar][NMeAbu][Sar][hPhe(3-Cl-4-CF3)]P[Ac5c][NMeChg][NMeD]-Piperidide; lactam N-11),8.89
18,CC[C@H](C)[C@@H]1NC(=O)[C@H](C)N(C)C(=O)C[C@@H](C)NC(=O)[C@H](C2CCCC2)N(C)C(=O)C2(CCCC2)NC(=O)[C@@H]2CCCN2C(=O)[C@H](CCc2ccc(C(F)(F)F)c(Cl)c2)NC(=O)[C@@H](C)N(C)C(=O)[C@H](CC(C)C)N(C)C(=O)[C@@H]2CCN2C(=O)[C@H](C)N(C)C1=O [Compound 98] (cyclo([Ac5c][NMeGly(cPent)][d(β3hA)][NMeA]I[NMeA][Aze][NMeL][dNMeA][hPhe(3-Cl-4-CF3)]P)),7.17

# Source: patent US12371454B2, “Cyclic peptide compound having Kras inhibitory action” (priority 2019, dated 2025)
